The structures appear in SMILES notation. Values joined by “and” are separate entries in the source; they are usually repeats but may differ in a detail not shown here. Identical values can stand only once.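 Five concentrations, 48 hours, 96-well plates. GI50: concentration for 50% inhibition of growth. TGI: concentration producing complete growth inhibition.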

Among the test systems are HL-60(TB) leukemia; MCF7 breast; OVCAR-3 ovarian; OVCAR-5 ovarian; OVCAR-8 ovarian; PC-3 prostate; SF-295 CNS; SNB-75 CNS; TK-10 renal; UO-31 renal.
Experiment in all cases: growth of human tumour cells (NCI), 48 h

`COc1ccc(OC)c(NCC(=O)n2nc(/C=C\c3ccc(O)c(OC)c3)cc2/C=C\c2ccc(O)c(OC)c2)c1`: the GI50 with HL-60(TB) leukemia is 0.989 µM; in the experiment with MCF7 breast, 1.61 µM; with OVCAR-3 ovarian it was 2.58 µM; in the experiment on OVCAR-5 ovarian, 2.35 µM; in the experiment on OVCAR-8 ovarian, 3.02 µM; in the experiment with PC-3 prostate it was 2.52 µM. Further, the GI50 in the experiment on SF-295 CNS was 2.44 µM; in the experiment with SNB-75 CNS, 2.2 µM; with TK-10 renal, 4.66 µM; in the experiment on UO-31 renal, 1.8 µM. In addition, the TGI in the experiment with HL-60(TB) leukemia was 5.05 µM; in the experiment with MCF7 breast, 10.4 µM; with OVCAR-3 ovarian, 13.9 µM; with OVCAR-5 ovarian, 5.54 µM; in the experiment with OVCAR-8 ovarian it was 11.9 µM; with PC-3 prostate, > 100 µM. The TGI in the experiment with SF-295 CNS turned out to be 6.08 µM; in the experiment with SNB-75 CNS, 9.75 µM; with TK-10 renal, 30.1 µM; in the experiment with UO-31 renal, 13.6 µM.
On to `CC1=C(C(=O)Nc2ccccc2)C(c2ccc(N(C)C)cc2)C(C(=O)Nc2ccccc2)=C(C)N1`, for which the TGI with HL-60(TB) leukemia was 49.4 µM; in the experiment on MCF7 breast it was > 100 µM; in the experiment on OVCAR-3 ovarian it was > 100 µM; in the experiment on OVCAR-5 ovarian, 99 µM; in the experiment with OVCAR-8 ovarian it was > 100 µM; with PC-3 prostate, > 100 µM. In addition, the TGI in the experiment with SF-295 CNS is 50.2 µM; in the experiment with SNB-75 CNS, > 100 µM; in the experiment with TK-10 renal, > 100 µM; in the experiment on UO-31 renal it was 65.4 µM.
`Cc1ccc(O)cc1Nc1ccnc2ccc(S(C)(=O)=O)cc12`: the GI50 is 10.2 µM in the experiment on HL-60(TB) leukemia; > 25 µM with MCF7 breast; 4.82 µM in the experiment with OVCAR-3 ovarian; 1.41 µM in the experiment with OVCAR-5 ovarian; 3.53 µM with OVCAR-8 ovarian; 4.2 µM with PC-3 prostate. Further, the GI50 in the experiment on SF-295 CNS is 3.34 µM; in the experiment on SNB-75 CNS, 0.106 µM; in the experiment on TK-10 renal it was 0.484 µM; in the experiment on UO-31 renal, 0.496 µM. Moreover, the TGI with HL-60(TB) leukemia is > 25 µM; in the experiment with MCF7 breast it was > 25 µM; in the experiment on OVCAR-3 ovarian, > 22.8 µM; with OVCAR-5 ovarian, 14.5 µM; in the experiment with OVCAR-8 ovarian, 16.4 µM; with PC-3 prostate, > 25 µM. Moreover, the TGI in the experiment with SF-295 CNS is > 25 µM; with SNB-75 CNS it was 1.28 µM; in the experiment on TK-10 renal, 2.23 µM; in the experiment on UO-31 renal, 4.81 µM.
For `COC1N(C2CC(O)C(CO)O2)C(=O)NC(=O)C1(F)Br` (stereo not drawn), the GI50 in the experiment with HL-60(TB) leukemia is 13.8 µM; with OVCAR-3 ovarian it was > 50 µM; with OVCAR-5 ovarian it was > 50 µM; in the experiment with OVCAR-8 ovarian, 22.5 µM; in the experiment on SF-295 CNS it was 21.9 µM; in the experiment with SNB-75 CNS, 7.44 µM. The GI50 in the experiment on TK-10 renal and in the experiment on UO-31 renal was > 50 µM in each case. The TGI with HL-60(TB) leukemia is > 67 µM; in the experiment on MCF7 breast, > 100 µM; with OVCAR-3 ovarian it was > 100 µM; in the experiment on OVCAR-5 ovarian, > 100 µM; with OVCAR-8 ovarian, 50 µM and > 100 µM; in the experiment with PC-3 prostate it was > 100 µM. The TGI with SF-295 CNS was 50 µM and > 100 µM; in the experiment on SNB-75 CNS, 50 µM and 81.6 µM; with TK-10 renal it was > 100 µM; with UO-31 renal it was > 100 µM.
`Cc1c(C(=N)C(C#N)C#N)c(=N)oc2c1ccc1ccccc12`: the GI50 with HL-60(TB) leukemia was 8.76 µM; in the experiment with MCF7 breast, 5.34 µM; in the experiment on OVCAR-3 ovarian, 14.7 µM; in the experiment on OVCAR-5 ovarian, 39.5 µM; with OVCAR-8 ovarian, 23.9 µM; with PC-3 prostate it was 29.5 µM. The GI50 in the experiment with SF-295 CNS is 33.9 µM; in the experiment on SNB-75 CNS it was 13.6 µM; with TK-10 renal, 30.5 µM; in the experiment with UO-31 renal it was 8.23 µM. The TGI is 85.8 µM with HL-60(TB) leukemia; > 100 µM in the experiment on MCF7 breast; 40.8 µM with OVCAR-3 ovarian; > 100 µM with OVCAR-5 ovarian; > 100 µM in the experiment on OVCAR-8 ovarian; > 100 µM in the experiment on PC-3 prostate. Moreover, the TGI in the experiment on SF-295 CNS is > 100 µM; in the experiment with SNB-75 CNS, 48.9 µM; with TK-10 renal, > 100 µM; in the experiment on UO-31 renal, > 100 µM.
With `CCN1C(=S)N(CC)C2C1NC(=S)N2/N=C/C=C/c1ccccc1OC` (stereo not drawn), the GI50 with HL-60(TB) leukemia is 0.229 µM; with MCF7 breast, 0.171 µM; in the experiment with OVCAR-3 ovarian it was 0.174 µM; in the experiment on OVCAR-5 ovarian, 0.442 µM; in the experiment on OVCAR-8 ovarian it was 0.538 µM; in the experiment on PC-3 prostate, 0.29 µM. For the same molecule, the GI50 was 0.113 µM with SF-295 CNS, 0.0935 µM with SNB-75 CNS, 7.69 µM in the experiment on TK-10 renal and 0.621 µM with UO-31 renal. Besides, the TGI with HL-60(TB) leukemia was 0.597 µM; in the experiment with MCF7 breast it was > 100 µM; in the experiment with OVCAR-3 ovarian, 0.64 µM; in the experiment with OVCAR-5 ovarian, 35.6 µM; with OVCAR-8 ovarian, > 41.2 µM; with PC-3 prostate it was > 100 µM. In addition, the TGI is 9.18 µM in the experiment with SF-295 CNS, 0.606 µM in the experiment on SNB-75 CNS, 98.9 µM in the experiment with TK-10 renal and > 93 µM in the experiment on UO-31 renal.
Turning to `CCN(C)c1nc(N(C)CC)c2nc(N(C)CC)nc(N(C)CC)c2n1`, the TGI in the experiment with HL-60(TB) leukemia, in the experiment on MCF7 breast, with OVCAR-3 ovarian, in the experiment with OVCAR-5 ovarian, with OVCAR-8 ovarian and in the experiment on PC-3 prostate was > 100 µM each time. The TGI in the experiment on SF-295 CNS, in the experiment on SNB-75 CNS, with TK-10 renal and in the experiment with UO-31 renal was > 100 µM throughout.
Consider `O=C1/C(=C/c2ccc(Cl)c(Cl)c2)CN(C(=O)CCN2CCC(=NO)CC2)C/C1=C\c1ccc(Cl)c(Cl)c1`, for which the GI50 was 1.48 µM in the experiment on HL-60(TB) leukemia; 0.333 µM with MCF7 breast; 0.574 µM with OVCAR-3 ovarian; 1.13 µM in the experiment on OVCAR-5 ovarian; 0.651 µM in the experiment on OVCAR-8 ovarian; 0.545 µM with PC-3 prostate. Moreover, the GI50 in the experiment with SF-295 CNS is 1.05 µM; in the experiment on SNB-75 CNS it was 1.38 µM; with TK-10 renal, 1.61 µM; with UO-31 renal it was 0.654 µM. Moreover, the TGI in the experiment on HL-60(TB) leukemia is 4.37 µM; in the experiment on MCF7 breast, 1.74 µM; in the experiment on OVCAR-3 ovarian, 1.64 µM; in the experiment with OVCAR-5 ovarian, 2.74 µM; with OVCAR-8 ovarian, 2.62 µM; with PC-3 prostate it was 1.66 µM. Besides, the TGI in the experiment with SF-295 CNS was found to be 2.59 µM; with SNB-75 CNS it was 3.17 µM; in the experiment on TK-10 renal, 3.18 µM; with UO-31 renal it was 1.34 µM.
For `O=C(Nc1ccc(N=C=S)cc1Cl)c1cc(Br)cc(Br)c1O`, the TGI with HL-60(TB) leukemia is > 100 µM; in the experiment with MCF7 breast it was > 100 µM; with OVCAR-3 ovarian, > 100 µM; with OVCAR-5 ovarian it was 50.9 µM; with OVCAR-8 ovarian it was 46.6 µM; with PC-3 prostate it was 54.5 µM. Moreover, the TGI with SF-295 CNS was > 100 µM; in the experiment with SNB-75 CNS it was > 100 µM; in the experiment with TK-10 renal it was 69.5 µM; with UO-31 renal, > 100 µM.
For the molecule `CC(Br)C(=O)NC(CO)C(=O)O` (stereo not drawn), the TGI in the experiment on HL-60(TB) leukemia, with MCF7 breast, with OVCAR-3 ovarian, in the experiment on OVCAR-5 ovarian, with OVCAR-8 ovarian and in the experiment on PC-3 prostate was > 100 µM each time. The TGI in the experiment on SF-295 CNS, with SNB-75 CNS, in the experiment on TK-10 renal and with UO-31 renal was > 100 µM each time.
Turning to `COc1ccc(C(=O)c2cc(OC)c(OC)c(OC)c2OC)cc1O`, the GI50 is 2.77 µM in the experiment on HL-60(TB) leukemia; 3.83 µM in the experiment on MCF7 breast; 2.83 µM with OVCAR-3 ovarian; 17.5 µM with OVCAR-5 ovarian; 4.06 µM in the experiment on OVCAR-8 ovarian; 4.06 µM in the experiment on PC-3 prostate. Further, the GI50 with SF-295 CNS was 1.94 µM; in the experiment with SNB-75 CNS, 1.69 µM; in the experiment with TK-10 renal, 52.8 µM; with UO-31 renal, 5.02 µM. In addition, the TGI in the experiment with HL-60(TB) leukemia is 9.82 µM; in the experiment with MCF7 breast it was > 100 µM; in the experiment on OVCAR-3 ovarian, 7.65 µM; in the experiment with OVCAR-5 ovarian it was > 100 µM; in the experiment with OVCAR-8 ovarian it was > 100 µM; with PC-3 prostate, > 100 µM. The TGI in the experiment with SF-295 CNS is 5.18 µM; in the experiment on SNB-75 CNS, 5.77 µM; with TK-10 renal, > 100 µM; in the experiment with UO-31 renal, > 100 µM.
In the case of `Cc1nn(-c2ccc(Cl)cc2)c2ncnc(N/N=C/c3ccccc3O)c12`, the GI50 in the experiment on HL-60(TB) leukemia is 0.335 µM and 0.305 µM; in the experiment with MCF7 breast it was 0.887 µM and 0.399 µM; with OVCAR-3 ovarian, 0.38 µM and 0.278 µM; in the experiment with OVCAR-5 ovarian, 4.16 µM and 2.34 µM; with OVCAR-8 ovarian, 0.42 µM and 0.361 µM; in the experiment with PC-3 prostate it was 1.09 µM and 0.568 µM. Also, the GI50 in the experiment on SF-295 CNS was 0.841 µM and 1.12 µM; in the experiment with SNB-75 CNS, 4.03 µM and 0.501 µM; with TK-10 renal it was 2.33 µM and 1.86 µM; in the experiment with UO-31 renal, 0.331 µM and 0.251 µM. The TGI was 40.7 µM in the experiment with HL-60(TB) leukemia; > 100 µM with MCF7 breast; 19.7 µM and 29.4 µM with OVCAR-3 ovarian; > 100 µM with OVCAR-5 ovarian; 43.2 µM and > 100 µM with OVCAR-8 ovarian; > 100 µM in the experiment with PC-3 prostate. The TGI in the experiment on SF-295 CNS is 9.93 µM and 24.4 µM; with SNB-75 CNS, 37.9 µM and 4.49 µM; with TK-10 renal, 63.4 µM and > 100 µM; with UO-31 renal it was 3.01 µM and 3.35 µM.

The record behind these values is PubChem BioAssay (NCI).
